In US7098218B2, “Steroidal compounds for inhibiting steroid sulphatase” (priority 2001, dated 2006):

What was measured:
[1] = biological target: T1, human placental steroid sulphatase (Homo sapiens, UniProt P08842); assay: Inhibition of oestrone sulphatase activity in human placental microsomes; format: biochemical; details: for inhibition at 0.0001 µM / inhibition at 0.001 µM / inhibition at 0.01 µM / inhibition at 0.1 µM / inhibition at 1 µM / inhibition at 10 µM: read-out: Mean % Inhibition ± SD
T1 construct: Placental microsomes (100000 g fraction) were prepared from a positive-positive human placenta from a normal-term pregnancy; from tissue; host or cells: human placenta, microsomal fraction
T1 sequence (P08842 22-583): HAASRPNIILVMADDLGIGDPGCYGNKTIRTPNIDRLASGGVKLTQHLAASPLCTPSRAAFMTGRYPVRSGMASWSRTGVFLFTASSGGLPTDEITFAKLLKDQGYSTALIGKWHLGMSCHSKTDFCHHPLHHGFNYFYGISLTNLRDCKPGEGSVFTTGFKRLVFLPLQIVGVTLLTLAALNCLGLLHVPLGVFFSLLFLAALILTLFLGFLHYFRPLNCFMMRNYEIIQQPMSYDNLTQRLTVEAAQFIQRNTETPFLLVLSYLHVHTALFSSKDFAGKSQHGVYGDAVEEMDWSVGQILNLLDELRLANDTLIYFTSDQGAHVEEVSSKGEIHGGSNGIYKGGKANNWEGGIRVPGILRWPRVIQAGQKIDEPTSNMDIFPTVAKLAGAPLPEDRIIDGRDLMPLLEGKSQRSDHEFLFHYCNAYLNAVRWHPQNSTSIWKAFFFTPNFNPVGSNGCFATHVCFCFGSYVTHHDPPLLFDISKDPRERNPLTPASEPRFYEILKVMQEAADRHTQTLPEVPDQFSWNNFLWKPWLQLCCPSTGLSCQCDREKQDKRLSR

[2] = biological target: T2, E2DH Type II (HSD Type II) in MDA-MB231 breast cancer cells (Homo sapiens, UniProt P37059); assay: Conversion of oestradiol to oestrone in intact MDA-MB231 cell monolayers (Protocol 7); format: cell-based; details: MDA-MB-231, measured at 10 μM, read-out: % Inhibition E2 → E1 ± SD (HSD Type II)
T2 construct: endogenous in cells; host or cells: MDA-MB-231 breast cancer cells
T2 sequence (P37059 1-387): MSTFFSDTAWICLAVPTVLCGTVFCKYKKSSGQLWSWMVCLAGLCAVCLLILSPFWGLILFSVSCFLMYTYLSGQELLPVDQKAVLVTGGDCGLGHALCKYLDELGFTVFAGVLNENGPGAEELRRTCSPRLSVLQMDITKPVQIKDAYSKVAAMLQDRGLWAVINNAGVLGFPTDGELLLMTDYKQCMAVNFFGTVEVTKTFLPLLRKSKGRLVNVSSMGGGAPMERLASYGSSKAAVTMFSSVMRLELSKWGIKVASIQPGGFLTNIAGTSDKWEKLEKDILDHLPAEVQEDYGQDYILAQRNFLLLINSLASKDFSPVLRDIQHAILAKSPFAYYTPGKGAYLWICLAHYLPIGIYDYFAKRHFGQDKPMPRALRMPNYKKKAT
Method: (§1) The ability of compounds to inhibit steroid dehydrogenase activity can be assessed using either T47D breast cancer cells in which E2HSD Type I activity is abundant or MDA-MB-231 cells for Type II inhibitor studies. In both cell lines formation of products is linear with respect to time and cell numbers. Details on a suitable Assay Protocol are presented in the Examples section.
(§2) Conversion of oestrone to oestradiol (E1→E2, E2DH Type I) and oestradiol to oestrone (E2→E1, E2DH Type II) was measured in intact cell monolayers of T47D and MDA-MB231 breast cancer cells respectively. Cells were cultured in flasks until they were 80–90% confluent. ^3 H-E1 or ^3H-E2 (6 pmol, ˜90 Ci/mmol) were added to each flask in the absence (control) or presence of various test compounds (10 μM) in 2.5 ml of medium. Substrate was also added to flasks without cells and incubated in parallel (blanks).
(§3) After incubation with T47D cells for 30 min or MDA cells for 3 h at 37° C., 2 ml of the medium was added to test tubes containing ^14C-E2 or ^14C-E1 (˜5000 cpm) and 50 μg E2 or E1 respectively. Steroids were extracted from the aqueous medium with diethyl ether (4 ml). The ether phase was decanted into separate tubes after freezing the aqueous phase in solid carbon dioxide-methanol mixture. The ether was evaporated to dryness under a stream of air at 40° C. The residue was dissolved in a small volume of diethyl ether and applied to TLC plates containing a fluorescent indicator. E1 and E2 were separated by TLC using DCM-Ethyl acetate (4:1 v/v). The position of the product from each incubation flask was marked on the TLC plate after visualisation under UV light. The marked regions were cut out and placed in scintillation vials containing methanol (0.5 ml) to elute the product. The amount of ^3 H-product formed and ^14C-E1 or ^14C-E2 recovered were calculated after scintillation spectrometry. The amount of product formed was corrected for procedural losses and for the number of cells in each flask.

[3] = biological target: T3, E2DH Type I (HSD Type I) in T47D breast cancer cells (Homo sapiens, UniProt P14061); assay: Conversion of oestrone to oestradiol in intact T47D cell monolayers (Protocol 7); format: cell-based; details: T47D, measured at 10 μM, read-out: % Inhibition E1 → E2 ± SD (HSD Type I)
T3 construct: T47D breast cancer cells in which E2HSD Type I activity is abundant; endogenous in cells; host or cells: T47D breast cancer cells
T3 sequence (P14061 2-328 limits assumed): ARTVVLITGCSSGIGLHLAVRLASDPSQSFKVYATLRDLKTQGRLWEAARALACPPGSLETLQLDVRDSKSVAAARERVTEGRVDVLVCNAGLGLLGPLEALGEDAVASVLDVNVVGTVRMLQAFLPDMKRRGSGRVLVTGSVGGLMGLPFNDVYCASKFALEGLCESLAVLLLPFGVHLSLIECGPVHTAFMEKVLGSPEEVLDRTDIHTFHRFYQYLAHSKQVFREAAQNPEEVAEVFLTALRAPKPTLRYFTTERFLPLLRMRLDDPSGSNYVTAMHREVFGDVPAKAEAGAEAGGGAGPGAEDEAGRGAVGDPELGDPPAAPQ
Method: as §1, §2, §3

STS = biological target: T4, STS (Homo sapiens, UniProt P08842); assay: biochemical; details: STS IC50 (nM), inhibition of E1S→E1; Table 1
T4 construct: can be assessed using either intact MCF-7 breast cancer cells or placental microsomes
T4 sequence (P08842 22-583): T1 sequence (P08842 22-583)

## C[C@]12CCC3c4ccc(O)cc4CCC3C1CC(=O)NC2=O (stereo partly shown)
other
  melting point: 297 to 300 °C

## CN1C(=O)CC2C3CCc4cc(O)ccc4C3CC[C@]2(C)C1=O (stereo partly shown)
other
  melting point: 328 to 330 °C

## CCCN1C(=O)CC2C3CCc4cc(O)ccc4C3CC[C@]2(C)C1=O (stereo partly shown)
other
  melting point: 183 to 186 °C

## CCCCCN1C(=O)CC2C3CCc4cc(O)ccc4C3CC[C@]2(C)C1=O (stereo partly shown)
other
  melting point: 181 to 184 °C

## C[C@]12CCC3c4ccc(O)cc4CCC3C1CC(=O)N(Cc1ccccc1)C2=O (stereo partly shown)
other
  melting point: 298 to 301 °C

## C[C@]12CCC3c4ccc(O)cc4CCC3C1CC(=O)N(CCCCBr)C2=O (stereo partly shown)
other
  melting point: 165 to 167 °C

## C=CCN1C(=O)CC2C3CCc4cc(O)ccc4C3CC[C@]2(C)C1=O (stereo partly shown)
other
  melting point: 147 to 149 °C

## CCN1C(=O)CC2C3CCc4cc(O)ccc4C3CC[C@]2(C)C1=O (stereo partly shown)
other
  melting point: 306 to 308 °C

## CCCCCCN1C(=O)CC2C3CCc4cc(O)ccc4C3CC[C@]2(C)C1=O (stereo partly shown)
other
  melting point: 157 to 159 °C

## C[C@]12CCC3c4ccc(O)cc4CCC3C1CC(=O)N(CC1CC1)C2=O (stereo partly shown)
other
  melting point: 238 to 240 °C

## CC(C)(C)c1ccc(CN2C(=O)CC3C4CCc5cc(O)ccc5C4CC[C@]3(C)C2=O)cc1 (stereo partly shown)
other
  melting point: 128 to 130 °C

## C[C@]12CCC3c4ccc(OS(N)(=O)=O)cc4CCC3C1CC(=O)NC2=O (stereo partly shown) [Compound 36, 3-Sulfamoyl-16,17-seco-estra-1,3,5(10)-Triene16,17-imide]
[1]
  IC50: 0.02 µM
  inhibition at 0.0001 µM: -6.5 ± 3.6%
  inhibition at 0.001 µM: -2.5 ± 3%
  inhibition at 0.01 µM: 17.4 ± 32.3%
  inhibition at 0.1 µM: 72.6 ± 3.1%
  inhibition at 1 µM: 93.8 ± 4.2%
  inhibition at 10 µM: 98.7 ± 2.7%

## CN1C(=O)CC2C3CCc4cc(OS(N)(=O)=O)ccc4C3CC[C@]2(C)C1=O (stereo partly shown) [Compound 37, 3-Sulfamoyl-N-methyl-16,17-seco-estra-1,3,5(10)-triene-16,17-imide]
[1]
  IC50: 0.012 µM
  inhibition at 0.0001 µM: 4.7 ± 3%
  inhibition at 0.001 µM: 15 ± 2.6%
  inhibition at 0.01 µM: 46.4 ± 6%
  inhibition at 0.1 µM: 81.9 ± 3.3%
  inhibition at 1 µM: 96.4 ± 5.1%
  inhibition at 10 µM: 99.1 ± 0.2%

## C[C@]12CCC3c4ccc(OS(N)(=O)=O)cc4CCC3C1CC(=O)N(Cc1ccccc1)C2=O (stereo partly shown) [STX 236, 3-Sulfamoyl-N-benzyl-16,17-seco-estra-1,3,5(10)-triene-16,7-imide]
[1]; in vitro
  inhibition of STS (in words): in a minor extend

## C[C@]12CCC3c4ccc(O)cc4CCC3C1CC(=O)NC2=O (stereo partly shown) [compound 187]
[2]
  inhibition at 10 µM: -15.4 ± 0.41%
[3]
  inhibition at 10 µM: 25.3 ± 2.2%

## CN1C(=O)CC2C3CCc4cc(O)ccc4C3CC[C@]2(C)C1=O (stereo partly shown) [compound 188]
[2]
  inhibition at 10 µM: -3.51 ± 2.44%
[3]
  inhibition at 10 µM: 33 ± 1.79%

## CCCN1C(=O)CC2C3CCc4cc(O)ccc4C3CC[C@]2(C)C1=O (stereo partly shown) [compound 189]
[2]
  inhibition at 10 µM: 5.05 ± 2.31%
[3]
  inhibition at 10 µM: 17 ± 3.25%

## CCCCCN1C(=O)CC2C3CCc4cc(O)ccc4C3CC[C@]2(C)C1=O (stereo partly shown) [compound 190]
[2]
  inhibition at 10 µM: 0.48 ± 4.76%
[3]
  inhibition at 10 µM: 24.1 ± 4.59%

## CCCN1C(=O)CC2C3CCc4cc(OS(N)(=O)=O)ccc4C3CC[C@]2(C)C1=O (stereo partly shown) [compound 213]
[2]
  inhibition at 10 µM: 14.3 ± 14.8%
[3]
  inhibition at 10 µM: 22.5 ± 1.62%
STS
  IC50: 41 nM
